Data taken from PubChem BioAssay (NCI).
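The compound was tested at five concentrations on cells cultured in 96-well plates, with a 48-hour exposure period. The concentration for 50% growth inhibition is given as GI50. TGI is the concentration that stops growth completely.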

How the values were obtained:
Experiment in all cases: growth of human tumour cells (NCI), 48 h
[1] = system: SW-620 colon
[2] = system: MOLT-4 leukemia
[3] = system: A498 renal
[4] = system: SF-268 CNS
[5] = system: UACC-257 melanoma
[6] = system: SF-295 CNS
[7] = system: SK-MEL-5 melanoma
[8] = system: K-562 leukemia
[9] = system: M14 melanoma
[10] = system: PC-3 prostate

SMILES | TGI [1] [µM] | TGI [2] [µM] | TGI [3] [µM] | TGI [4] [µM] | TGI [5] [µM] | TGI [6] [µM] | TGI [7] [µM] | TGI [8] [µM] | TGI [9] [µM] | GI50 [1] [µM] | GI50 [2] [µM] | GI50 [3] [µM] | GI50 [4] [µM] | GI50 [10] [µM] | TGI [10] [µM] | GI50 [5] [µM] | GI50 [7] [µM] | GI50 [9] [µM] | GI50 [6] [µM] | GI50 [8] [µM]
Cc1ccc(NC(=O)CCC(=O)C2CC(=O)CC/C2=N\NC(=O)c2cc3ccccc3cc2O)cc1C (centres undefined) | > 100 | 99.6 | > 100 | > 100 | 61.7 | > 100 | 29.6 | > 100 | 88.9 | – | – | – | – | – | – | – | – | – | – | –
CCCCCCCCCCCCCCCC[N+]1(CC)CCCC1 | 1.65 | 2.19 | 2.94 | 1.68 | 3.76 | – | 1.52 | – | 1.72 | 0.41 | 0.486 | 0.397 | 0.454 | 0.284 | 1.15 | 1.58 | 0.4 | 0.474 | – | –
CC(C)OP(=O)(OC(C)C)C(N(C)C)P(=O)(OC(C)C)OC(C)C.[Cl][Sn]([Cl])([Cl])[c]1ccccc1 | 22.3 | 7.39 | 89.8 | 31.7 | 8.95 | 9.98 | 3.16 | 5.62 | – | 3.26 | 1.97 | 14.2 | 2.9 | – | – | 2.79 | 1.65 | – | 4.15 | 2.26
CC(=O)NC1C(OCc2ccccc2)OC(COC(=O)CCCCCCCCCCNC(=O)c2cccc3c(=O)c4ccccc4[nH]c23)C(O)C1OC(C)C(=O)NC(C)C(=O)NC(CCC(N)=O)C(N)=O (centres undefined) | > 100 | > 100 | > 100 | > 100 | > 100 | > 100 | > 100 | > 100 | > 100 | – | – | – | – | – | – | – | – | – | – | –
CC(C)c1ccc(/C=C(\NC(=O)c2ccccc2)c2nc3ccccc3[nH]2)cc1 | > 100 | 69.9 | > 100 | > 100 | > 100 | – | 48.7 | > 100 | > 100 | – | – | – | – | – | – | – | – | – | – | –
CC(=O)[CH-]C(=O)c1ccccc1.CC(=O)[CH-]C(=O)c1ccccc1.[O]=[U+2]=[O] | > 100 | > 100 | 96.9 | > 100 | > 100 | > 100 | > 100 | > 100 | > 100 | 35.3 | 32.3 | 28.7 | 58.2 | – | – | 34.3 | 26.8 | 35.8 | 6.55 | 37.3
COC(=O)C(CC=O)C(=O)C(=O)Nc1cccc(C(F)(F)F)c1 (centres undefined) | > 100 | > 100 | – | > 100 | > 100 | > 100 | > 100 | > 100 | > 100 | – | – | – | – | – | – | – | – | – | – | –
COc1cccc(-c2nn(-c3ccccc3)cc2-c2ccnc(NCCNC(=O)Nc3ccc(Cl)c(Cl)c3)c2)c1 | 11.1 | 7.11 | – | 10.3 | 20.3 | 7.28 | 3.71 | 11.1 | 4.05 | 2.7 | 2.31 | – | 2.43 | 2.5 | 8.36 | 3.63 | 1.95 | 1.67 | 2.41 | 3.09
Clc1ccc2c(Cl)ncnc2c1 | > 100 | > 100 | > 100 | > 100 | > 100 | > 100 | > 100 | > 100 | > 100 | – | – | – | – | – | – | – | – | – | – | –
COc1c(O)c(OC)c(C(=O)/C=C/c2ccccc2)c(O)c1OC | 66.2 | > 100 | – | > 100 | > 100 | > 100 | 46 | > 100 | > 100 | – | – | – | – | – | > 100 | – | – | – | – | –
N#Cc1c2c(c(N=[N+]=[N-])n3c1nc1ccccc13)CCCC2 | 4.31 | 5.37 | 6.1 | 16 | 3.12 | 4.94 | 32.3 | 8.21 | 3.48 | – | – | – | – | – | – | – | – | – | – | –
COC(=O)/C(=N\NC(=O)c1ccccc1O)C(C#N)c1ccc(Cl)cc1 (centres undefined) | > 100 | > 100 | > 100 | > 100 | > 100 | > 100 | > 100 | > 100 | > 100 | – | – | – | – | – | – | – | – | – | – | –
CN1CC2(CCCCC2)C(O)C12C=CCCC2 (centres undefined) | > 100 | > 100 | > 100 | > 100 | > 100 | > 100 | > 100 | > 100 | > 100 | – | – | – | – | – | – | – | – | – | – | –
O=C(OCc1ccccc1CN1CCOCC1)c1ccc(Br)cc1 | > 100 | – | > 100 | > 100 | > 100 | – | 41.9 | – | > 100 | – | – | – | – | – | > 100 | – | – | – | – | –
O=C1OCC(C(=O)c2cccc(O)c2)C1=O (centres undefined) | > 100 | – | > 100 | > 100 | > 100 | > 100 | > 100 | – | > 100 | – | – | – | – | – | – | – | – | – | – | –
CC1=CC2=C(C)C3(CC3)[C@@](C)(O)C(=O)C2=C1 | > 1 | > 1 | 0.505 | 0.456 | 0.578 | 0.571 | 0.294 | > 1 | 0.393 | – | – | – | – | – | – | – | – | – | – | –
CCOC(=O)c1cnc2[nH]c(=O)c3ccccc3n2c1=O | > 100 | > 100 | – | > 100 | > 100 | > 100 | > 100 | > 100 | > 100 | – | – | – | – | – | – | – | – | – | – | –
CCC1OCCN1C(C)C (centres undefined) | > 100 | > 100 | > 100 | > 100 | > 100 | > 100 | > 100 | > 100 | – | – | – | – | – | – | – | – | – | – | – | –
O=c1c2ccccc2nc(-c2ccccc2)n1NCC1(O)OCC(O)C(O)C1O (centres undefined) | > 100 | > 100 | > 100 | > 100 | > 100 | > 100 | > 100 | > 100 | > 100 | – | – | – | – | – | – | – | – | – | – | –
Cn1c(=O)c2c3oc(=O)cc(O)c3c(=O)n3c4ccccc4n(c1=O)c23 | > 100 | > 100 | > 100 | > 100 | 82.9 | > 100 | 81 | 65.8 | > 100 | – | – | – | – | – | – | – | – | – | – | –
